The subject of this assay is P388 leukemia ip, CD2F1 mice, survival T/C. Briefly: NCI In Vivo Anticancer Drug Screen. Data for tumor model P388 Leukemia (intraperitoneal) in CD2F1 (CDF1) mice. The following applies: endpoint: median survival time, higher = longer survival. In short, it runs like this: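 Mice carrying the transplanted tumor received test compound or vehicle. Survival was recorded in each group, and the value is the treated-group measurement divided by that of the vehicle-treated control group.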

The mark [1] stands for this setting: dose: 50.0 mg/kg/injection, schedule: Q01DX005 (ip), vehicle: Klucel (hydroxypropylcellulose) (HPC).
The mark [2] stands for this setting: dose: 50.0 mg/kg/injection, schedule: Q01DX009 (ip), vehicle: saline with Tween-80.
Where [3] appears, read: dose: 100.0 mg/kg/injection, schedule: Q01DX009 (ip), vehicle: saline with Tween-80.
[4] abbreviates: dose: 60.0 mg/kg/injection, schedule: Q01DX005 (ip), vehicle: saline with Tween-80.

Several values for one entry are separate records, joined by “and”; a condition that tells them apart may be missing. Equal entries are not always repeated. Inconclusive results and toxic doses are left out.

Turning to `CCOC(=O)C(CC(C)C)NC(=O)C(Cc1ccc(N(CCCl)CCCl)cc1)NC(C)=O` (stereo not given), the T/C was 101 % of control (dose: 0.25 mg/kg/injection, schedule: Q01DX009 (ip), vehicle: saline); 115 % of control (dose: 0.5 mg/kg/injection, schedule: Q01DX009 (ip), vehicle: saline); 111 % of control (dose: 1.0 mg/kg/injection, schedule: Q01DX009 (ip), vehicle: saline); 109 % of control (dose: 2.0 mg/kg/injection, schedule: Q01DX009 (ip), vehicle: Klucel (hydroxypropylcellulose) (HPC)); 111 % of control (dose: 2.0 mg/kg/injection, schedule: Q01DX009 (ip), vehicle: olive oil, sesame oil, peanut oil); 100 % of control (dose: 2.0 mg/kg/injection, schedule: Q01DX009 (ip), vehicle: saline with Tween-80). Besides, the T/C (dose: 4.0 mg/kg/injection, schedule: Q01DX009 (ip), vehicle: Klucel (hydroxypropylcellulose) (HPC)) was 110 % of control; the T/C (dose: 4.0 mg/kg/injection, schedule: Q01DX009 (ip), vehicle: olive oil, sesame oil, peanut oil) is 120 % of control; the T/C (dose: 4.0 mg/kg/injection, schedule: Q01DX009 (ip), vehicle: saline with Tween-80) was 100 % of control; the T/C (dose: 8.0 mg/kg/injection, schedule: Q01DX009 (ip), vehicle: Klucel (hydroxypropylcellulose) (HPC)) was 120 % of control; the T/C (dose: 8.0 mg/kg/injection, schedule: Q01DX009 (ip), vehicle: saline with Tween-80) was 109 % of control; the T/C (dose: 8.0 mg/kg/injection, schedule: Q01DX009 (ip), vehicle: saline) was 163 % of control. In addition, the T/C runs as follows: (dose: 12.5 mg/kg/injection, schedule: Q01DX005 (iv), vehicle: Klucel (hydroxypropylcellulose) (HPC)) 116 % of control; (dose: 16.0 mg/kg/injection, schedule: Q01DX009 (ip), vehicle: saline with Tween-80) 111 % of control; (dose: 16.0 mg/kg/injection, schedule: Q01DX009 (ip), vehicle: saline) 163 % of control and 225 % of control; (dose: 16.0 mg/kg/injection, schedule: Q04DX003 (ip), vehicle: saline with Tween-80) 152 % of control; (dose: 18.9 mg/kg/injection, schedule: Q04DX003 (ip), vehicle: saline with Tween-80) 152 % of control; (dose: 25.0 mg/kg/injection, schedule: Q01DX005 (ip), vehicle: Klucel (hydroxypropylcellulose) (HPC)) 174 % of control. Besides, the T/C was 161 % of control (dose: 28.4 mg/kg/injection, schedule: Q04DX003 (ip), vehicle: saline with Tween-80); 172 % of control (dose: 32.0 mg/kg/injection, schedule: Q01DX009 (ip), vehicle: Klucel (hydroxypropylcellulose) (HPC)); 175 % of control (dose: 32.0 mg/kg/injection, schedule: Q01DX009 (ip), vehicle: olive oil, sesame oil, peanut oil); 117 % of control (dose: 32.0 mg/kg/injection, schedule: Q01DX009 (ip), vehicle: saline with Tween-80); 189 % of control (dose: 32.0 mg/kg/injection, schedule: Q04DX003 (ip), vehicle: saline with Tween-80); 172 % of control (dose: 42.6 mg/kg/injection, schedule: Q04DX003 (ip), vehicle: saline with Tween-80). For the same molecule, the T/C was 230 % of control under setting [1]; 156 % of control (dose: 50.0 mg/kg/injection, schedule: Q01DX005 (iv), vehicle: Klucel (hydroxypropylcellulose) (HPC)); 151 % of control (dose: 64.0 mg/kg/injection, schedule: Q01DX009 (ip), vehicle: Klucel (hydroxypropylcellulose) (HPC)); 188 % of control and 211 % of control (dose: 64.0 mg/kg/injection, schedule: Q04DX003 (ip), vehicle: saline with Tween-80); 170 % of control (dose: 96.0 mg/kg/injection, schedule: Q04DX003 (ip), vehicle: saline with Tween-80); 152 % of control (dose: 128.0 mg/kg/injection, schedule: Q01DX009 (ip), vehicle: saline with Tween-80). For the same molecule, the T/C runs as follows: (dose: 256.0 mg/kg/injection, schedule: Q01DX009 (ip), vehicle: other) 151 % of control; (dose: 256.0 mg/kg/injection, schedule: Q01DX009 (ip), vehicle: saline with Tween-80) 152 % of control and 157 % of control; (dose: 512.0 mg/kg/injection, schedule: Q01DX009 (ip), vehicle: other) 179 % of control; (dose: 512.0 mg/kg/injection, schedule: Q01DX009 (ip), vehicle: saline with Tween-80) 185 % of control.
Regarding `CSC(SC)(SC)SC`, the T/C reads like this: under setting [2], 94 % of control; under setting [3], 109 % of control.
Regarding `O=C(O)C1Cc2c([nH]c3ccccc23)C(C(=O)O)N1` (stereo not given), the T/C (dose: 50.0 mg/kg/injection, schedule: Q04DX003 (ip), vehicle: saline) is 95 % of control; the T/C (dose: 100.0 mg/kg/injection, schedule: Q04DX003 (ip), vehicle: saline) is 95 % of control; the T/C (dose: 200.0 mg/kg/injection, schedule: Q04DX003 (ip), vehicle: saline) is 93 % of control.
Consider `CCN(CC)CCNC(=O)c1nn(-c2ccc(C)cc2)c2c1N(C)S(=O)(=O)c1ccccc1-2`, for which the T/C was 100 % of control (dose: 100.0 mg/kg/injection, schedule: Q01DX001 (ip), vehicle: saline with Tween-80); 97 % of control (dose: 200.0 mg/kg/injection, schedule: Q01DX001 (ip), vehicle: saline with Tween-80); 97 % of control (dose: 400.0 mg/kg/injection, schedule: Q01DX001 (ip), vehicle: saline with Tween-80).
With `CC(=O)Nc1ncn[nH]1`, the T/C reads like this: under setting [2], 100 % of control; under setting [3], 90 % of control; (dose: 100.0 mg/kg/injection, schedule: Q04DX003 (ip), vehicle: saline with Tween-80) 100 % of control; (dose: 200.0 mg/kg/injection, schedule: Q01DX009 (ip), vehicle: saline with Tween-80) 90 % of control; (dose: 200.0 mg/kg/injection, schedule: Q04DX003 (ip), vehicle: saline with Tween-80) 90 % of control.
Regarding `CN1C2=CC=CC=CC2=[N+](C)C1C(=C=[N-])C#N` (stereo not given), the T/C is 104 % of control (dose: 15.0 mg/kg/injection, schedule: Q01DX005 (ip), vehicle: saline with Tween-80); 107 % of control (dose: 30.0 mg/kg/injection, schedule: Q01DX005 (ip), vehicle: saline with Tween-80); 107 % of control and 115 % of control under setting [4].
Take `COc1ccc(NC(=O)C/C(C)=C2/C(=O)NN(c3ccccc3)C2=O)cc1`: the T/C is, setting by setting: under setting [4], 104 % of control; (dose: 120.0 mg/kg/injection, schedule: Q01DX005 (ip), vehicle: saline with Tween-80) 97 % of control; (dose: 240.0 mg/kg/injection, schedule: Q01DX005 (ip), vehicle: saline with Tween-80) 92 % of control.
In the case of `Cc1cccc(Nc2ncnc3nc[nH]c23)c1`, the T/C reads like this: under setting [1], 100 % of control; (dose: 100.0 mg/kg/injection, schedule: Q01DX005 (ip), vehicle: Klucel (hydroxypropylcellulose) (HPC)) 91 % of control; (dose: 200.0 mg/kg/injection, schedule: Q01DX005 (ip), vehicle: Klucel (hydroxypropylcellulose) (HPC)) 94 % of control.
Turning to `Cc1no[n+]([O-])c1C(=O)NN`, the T/C is 103 % of control (dose: 60.0 mg/kg/injection, schedule: Q01DX005 (ip), vehicle: Klucel (hydroxypropylcellulose) (HPC)); 94 % of control (dose: 120.0 mg/kg/injection, schedule: Q01DX005 (ip), vehicle: Klucel (hydroxypropylcellulose) (HPC)); 100 % of control (dose: 240.0 mg/kg/injection, schedule: Q01DX005 (ip), vehicle: Klucel (hydroxypropylcellulose) (HPC)).
In the case of `CCOCCC(=O)NCC(=O)NC1C(CO)OC(Nc2ncnc3nc[nH]c23)C(O)C1O` (stereo not given), the T/C reads like this: (dose: 3.12 mg/kg/injection, schedule: Q01DX009 (ip), vehicle: water) 98 % of control; (dose: 6.25 mg/kg/injection, schedule: Q01DX009 (ip), vehicle: water) 88 % of control; (dose: 12.5 mg/kg/injection, schedule: Q01DX009 (ip), vehicle: water) 98 % of control; (dose: 25.0 mg/kg/injection, schedule: Q01DX009 (ip), vehicle: water) 106 % of control; (dose: 50.0 mg/kg/injection, schedule: Q01DX009 (ip), vehicle: water) 101 % of control.
As for `C=CCN1CCN(c2ccncc2S(=O)(=O)N2CCN(C)CC2)CC1`, the T/C is, setting by setting: (dose: 50.0 mg/kg/injection, schedule: Q01DX009 (ip), vehicle: saline) 105 % of control; (dose: 100.0 mg/kg/injection, schedule: Q01DX009 (ip), vehicle: saline) 99 % of control; (dose: 200.0 mg/kg/injection, schedule: Q01DX009 (ip), vehicle: saline) 97 % of control.
With `COC(=O)CCCCc1ccc(CCCC(=O)OC)c2ccccc12`, the T/C is, setting by setting: (dose: 50.0 mg/kg/injection, schedule: Q01DX009 (ip), vehicle: other) 102 % of control; (dose: 100.0 mg/kg/injection, schedule: Q01DX009 (ip), vehicle: other) 102 % of control; (dose: 200.0 mg/kg/injection, schedule: Q01DX009 (ip), vehicle: other) 105 % of control.
